Measurements reported in the supplement of paper PMC10307832.

What was measured:
Experiment in all cases: relative viability (nuclei count vs DMSO), 5 days (fraction); higher = more cells survive
Ricolinostat + Lapatinib = compound: O=C(CCCCCCNC(=O)c1cnc(N(c2ccccc2)c2ccccc2)nc1)NO [Ricolinostat] + CS(=O)(=O)CCNCc1ccc(-c2ccc3ncnc(Nc4ccc(OCc5cccc(F)c5)c(Cl)c4)c3c2)o1 [Lapatinib] (partner 2 µM)
Method in brief: (§1)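 Lung cancer cell lines were seeded in 1536-well plates and dosed by pin tool the next day, with either a single drug or a fixed anchor-drug dose combined with five library-drug doses (not always all listed) spaced in √10 steps. Five days later, one step fixed the cells and stained their nuclei (final 0.05% Triton X-100, 1% formaldehyde, 1 ug/ml Hoechst), and nuclei were counted on 4× images. Relative viability is the nuclei count in treated wells divided by the count in vehicle wells, and each value is the median of duplicate plates.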

Ricolinostat + Foretinib = compound: O=C(CCCCCCNC(=O)c1cnc(N(c2ccccc2)c2ccccc2)nc1)NO [Ricolinostat] + COc1cc2c(Oc3ccc(NC(=O)C4(C(=O)Nc5ccc(F)cc5)CC4)cc3F)ccnc2cc1OCCCN1CCOCC1 [Foretinib] (partner 0.25 µM)
Method in brief: as §1

[1] = compound: O=C(CCCCCCNC(=O)c1cnc(N(c2ccccc2)c2ccccc2)nc1)NO [Ricolinostat] + C[C@@H](Oc1cc(-c2cnn(C3CCNCC3)c2)cnc1N)c1c(Cl)ccc(F)c1Cl [Crizotinib] (partner 1 µM)
Method in brief: as §1

TGX 221 + Bortezomib = compound: CC1=CN2C(=O)C=C(N=C2C(=C1)C(C)NC3=CC=CC=C3)N4CCOCC4 [TGX 221] + CC(C)C[C@H](NC(=O)[C@H](Cc1ccccc1)NC(=O)c1cnccn1)B(O)O [Bortezomib] (partner 0.002 µM)
Method in brief: as §1

Cell Line | relative viability (Ricolinostat + Lapatinib; first compound 0.08 µM) | relative viability (Ricolinostat + Lapatinib; first compound 0.253 µM) | relative viability (Ricolinostat + Lapatinib; first compound 0.8 µM) | relative viability (Ricolinostat + Lapatinib; first compound 2.53 µM) | relative viability (Ricolinostat + Foretinib; first compound 0.253 µM) | relative viability (Ricolinostat + Foretinib; first compound 0.8 µM) | relative viability (Ricolinostat + Foretinib; first compound 2.53 µM) | relative viability ([1]; first compound 0.08 µM) | relative viability ([1]; first compound 0.253 µM) | relative viability ([1]; first compound 0.8 µM) | relative viability ([1]; first compound 2.53 µM) | relative viability (TGX 221 + Bortezomib; first compound 0.253 µM) | relative viability (TGX 221 + Bortezomib; first compound 0.8 µM) | relative viability (TGX 221 + Bortezomib; first compound 2.53 µM) | relative viability (TGX 221 + Bortezomib; first compound 8 µM) | relative viability (Ricolinostat + Foretinib; first compound 0.08 µM) | relative viability (TGX 221 + Bortezomib; first compound 0.08 µM)
201T | 0.921 | 1.01 | 0.95 | 1.07 | 1.09 | 1.14 | 1.08 | 0.926 | 1.04 | 1.08 | 1.07 | 1.15 | 1.08 | 1.05 | 0.996 | – | –
A549 | 0.977 | 0.887 | 0.859 | 0.72 | 0.99 | 0.928 | 0.917 | 0.757 | 0.714 | 0.581 | 0.291 | – | – | – | – | 0.859 | –
A-427 | 0.892 | 1.01 | 0.897 | 1.02 | 1.17 | 0.925 | 1.14 | 0.747 | 0.869 | 0.82 | 0.63 | 0.99 | 0.965 | 0.942 | 0.993 | – | 0.954
ABC-1 | 1.27 | 1.12 | 1.3 | 1.65 | 0.901 | 1.11 | 0.912 | 1.01 | 1.16 | 0.836 | 0.705 | 0.243 | 0.348 | 0.315 | 0.29 | 0.88 | 0.325
BEN | 0.613 | 0.643 | 0.588 | 0.423 | 0.598 | 0.483 | 0.481 | 0.745 | 0.789 | 0.903 | 0.68 | 0.694 | 0.528 | 0.756 | 0.915 | 0.657 | 0.773
CAL-12T | 0.326 | 0.751 | 0.628 | 0.668 | 1.17 | 1.12 | 1.35 | 0.623 | 0.545 | 0.571 | 0.618 | 0.952 | 0.918 | – | 1.05 | 1.04 | –
COR-L23 | 1.05 | 0.835 | 0.8 | 0.588 | 0.965 | 0.87 | 0.653 | 0.506 | 0.545 | 0.571 | 0.277 | 0.964 | 0.928 | 1.06 | 1.01 | 0.973 | 0.876
COR-L 105 | 0.342 | 0.396 | 0.399 | 0.384 | 0.874 | 0.917 | 1.16 | 0.669 | 0.854 | 0.643 | 0.646 | 0.816 | 1.01 | 0.698 | 0.736 | – | 0.832
